Data set [1] deals with T1, Aβ40 (Homo sapiens, UniProt P05067).
T1 construct: pre-treated Aβ40 (40 μM in 20 mM Tris, pH 7.4)
Put plainly: Thioflavin T (ThT) Aβ aggregation assay. The class given is biochemical. The following applies: for IC50: 20 μM Aβ40, 37 degrees C. How it is done: Aβ40 (1.0 mg) was pre-treated in a 1.5 mL microfuge tube with HFIP (1 mL) and sonicated for 20 min to disassemble any pre-formed Aβ aggregates. The HFIP was removed with a stream of argon and the Aβ dissolved in Tris base (5.8 mL, 20 mM, pH ˜10). The pH was adjusted to 7.4 with concentrated HCl (−10 μL) and the solution filtered using a syringe filter (0.2 μm) before being used.
The kinetic ThT assay for Aβ aggregation is similar to that of Chalifour et al (Chalifour et al, 2003, J. Biol. Chem. 278:34874-81). Briefly, pre-treated Aβ40 (40 μM in 20 mM Tris, pH 7.4), was diluted with an equal volume of 8 μM ThT in Tris (20 mM, pH 7.4, 300 mM NaCl). Aliquots of Aβ/ThT (200 μL) were added to wells of a black polystyrene 96-well plate, followed by 2 μL of a compound in DMSO (variable concentration), or DMSO alone (controls). Incubations were performed in triplicate and were taken to contain 20 μM Aβ, various concentration of compound in 20 mM Tris, pH 7.4, 150 mM NaCl, 1% DMSO. Plates were covered with clear polystyrene lids and incubated at 37 degrees C. in a Tecan Genios microplate reader. Fluorescence readings (λex=450 nm, λem=480 nm) were taken every 15 min., after first shaking at high intensity for 15 s and allowing to settle for 10 s before each reading. Active compounds attenuated the increase in fluorescence over time that occurred in controls.

A short description of data set [2]: Metabolic stability in mouse liver microsomes. In kind it is in vitro ADME. To be noted: 1 μM compound, 0.5 mg/mL microsomal protein, 1 mM NADPH. How it is done: This assay is used to determine the percent remaining and intrinsic clearance of a test compound incubated with pooled mouse liver microsomes in the presence of NADPH. Further details on this method may be found in Jeffrey P, et al., Utility of metabolic stability screening: comparison of in vitro and in vivo clearance. enobiotica. 2001 August-September; 31(8-9):591-8 and Lin J H, et al., Role of pharmacokinetics and metabolism in drug discovery and development. Pharmacol Rev. 1997; 49(4):403-49; each of which is hereby incorporated by reference. Test compound was formulated in 300 μL of DMSO at 10 mM and was diluted to 1 μM with final concentration of organic solvent <0.25% for the experiment. Pooled liver microsomes were prepared from male mice, with 1 mM NADPH. Test compound was incubated at 37 degrees Celsius in buffer containing 0.5 mg/mL microsomal protein; the reaction was initiated by adding cofactors and sampled at 0, 10, 20, 30, and 60 minutes. A positive control (5 μM testosterone) was incubated and initiated in parallel for quality control. Samples were analyzed using an LTQ-Orbitrap XL mass spectrometer; HRMS was used to determine the peak area response ratio (peak area corresponding to test compound or control divided by that of an analytical internal standard) without running a standard curve.
Results were reported for selected compounds in the table of Example 1, as % test compound remaining after 60 minutes. Compounds which have less than about 5% remaining are not considered to be metabolically stable in mouse liver microsomes, while compounds with more than about 5% remaining are considered to be metabolically stable in mouse liver microsomes.

SMILES strings stand for the structures.

The IC50 is the point on the concentration scale where inhibition reaches its midpoint. What is called inhibition is the relative decrease from the control value, in per cent. Low readings indicate little suppression, high ones strong suppression.

T1 sequence (P05067 672-711 limits assumed): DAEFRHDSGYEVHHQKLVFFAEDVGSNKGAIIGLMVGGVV

Consider `O=C(c1ccccc1)N1CCN(c2ccc([N+](=O)[O-])c(NC3CC3)c2)CC1` [TRV 1142, (4-(3-(cyclopropylamino)-4-nitrophenyl)piperazin-1-yl)(phenyl)methanone], for which the IC50 in data set [1] is ~10 µM. In data set [2], the “Stability in mouse liver microsomes (% test compound remaining after 60 min)” value is given as 1.7%.

`NS(=O)(=O)c1ccccc1-c1ccc([N+](=O)[O-])c(NCc2ccccc2)c1` [TRV 1121, 3′-(benzylamino)-4′-nitro-[1,1′-biphenyl]-2-sulfonamide] yielded an IC50 in data set [1] of 24.6 ± 6.83 µM. In addition, the “Stability in mouse liver microsomes (% test compound remaining after 60 min)” value in data set [2] is on record as <1.0%.

In data set [1], `O=C(c1cccc(-c2ccc([N+](=O)[O-])c(NCc3ccccc3)c2)c1)N1CCCC1` [TRV 1117, (3′-(benzylamino)-4′-nitrobiphenyl-3-yl)(pyrrolidin-1-yl)methanone] came in with an IC50 of 2.94 ± 1.64 µM. In data set [2], the “Stability in mouse liver microsomes (% test compound remaining after 60 min)” value is <1.0%.

Compound `CC(O)c1cccc(-c2ccc([N+](=O)[O-])c(NCc3ccccc3)c2)c1` (stereo not shown) [TRV 1129, 1-(3′-(benzylamino)-4′-nitrobiphenyl-3-yl)ethanol] had a 50% inhibitory concentration (IC50) in data set [1] of 6.49 ± 0.21 µM. Besides, the “Stability in mouse liver microsomes (% test compound remaining after 60 min)” value in data set [2] is listed as <1.0%.

In turn, `CC(C)N(C(=O)c1cccc(-c2ccc([N+](=O)[O-])c(NCc3ccccc3)c2)c1)C(C)C` [TRV 1112, 3′-(benzylamino)-N,N-diisopropyl-4′-nitrobiphenyl-3-carboxamide] gave an IC50 in data set [1] of 1.41 ± 1.11 µM. Moreover, the “Stability in mouse liver microsomes (% test compound remaining after 60 min)” value in data set [2] was <1.0%.

As for `CC1CN(c2ccc([N+](=O)[O-])c(Nc3ccccc3)c2)CCN1C(=O)c1ccccc1` (stereo not shown) [TRV 1099, (2-methyl-4-(4-nitro-3-(phenylamino)phenyl)piperazin-1-yl)(phenyl)methanone], it took 6.12 ± 2.78 µM to reach half-maximal inhibition in data set [1] (IC50).

As to `CC(C)Nc1cc(N2CCN(C(=O)c3ccccc3)CC2)ccc1[N+](=O)[O-]` [TRV 1144, (4-(3-(isopropylamino)-4-nitrophenyl)piperazin-1-yl)(phenyl)methanone], the IC50 in data set [1] is > 10 µM.

In data set [1], `O=[N+]([O-])c1ccc(-c2cccc(CO)c2)cc1NCc1ccccc1` [TRV 1147] showed an IC50 of 3.54 ± 0.46 µM. Further, the “Stability in mouse liver microsomes (% test compound remaining after 60 min)” value in data set [2] is <1.0%.

On to `CC(=O)c1cccc(-c2ccc([N+](=O)[O-])c(NCc3ccccc3)c2)c1` [TRV 1124, 1-(3′-(benzylamino)-4′-nitrobiphenyl-3-yl)ethanone], for which the midpoint of inhibition in data set [1], the IC50, lay at 6.49 ± 2.5 µM.

With `CC(O)c1cccc(-c2ccc(OC(F)F)c(NCc3ccccc3)c2)c1` (stereo not shown) [TRV 1192, 1-(3′-(benzylamino)-4′-(difluoromethoxy)biphenyl-3-yl)ethanol], the IC50 in data set [1] was ~50 µM.

Consider `CC(C)Nc1cc(N2CCN(C(=O)c3ccccc3)CC2)ccc1F` [TRV 1160, (4-(4-fluoro-3-(isopropylamino)phenyl)piperazin-1-yl)(phenyl)methanone], for which the IC50 in data set [1] was > 50 µM.

`CC(C)Nc1cc(F)cc(N2CCN(C(=O)c3ccccc3)CC2)c1` [TRV 1179, (4-(3-fluoro-5-(isopropylamino)phenyl)piperazin-1-yl)(phenyl)methanone]: the IC50 in data set [1] was > 50 µM.

Turning to `CCN(CC)C(=O)c1cccc(-c2ccc([N+](=O)[O-])c(NCc3ccccc3)c2)c1` [TRV 1110, 3′-(benzylamino)-N,N-diethyl-4′-nitrobiphenyl-3-carboxamide], half-maximal inhibition in data set [1] (IC50) required 0.7 ± 0.9 µM. Besides, the “Stability in mouse liver microsomes (% test compound remaining after 60 min)” value in data set [2] is <1.0%.

As for `CC1CN(c2ccc([N+](=O)[O-])c(Nc3ccccc3)c2)CC(C)N1C(=O)c1ccccc1` (stereo not shown) [TRV 1098, (2,6-dimethyl-4-(4-nitro-3-(phenyl amino)phenyl)piperazin-1-yl)(phenyl)methanone], in data set [1], the IC50 is 3.99 ± 3.77 µM.

Compound `O=C(c1cccc(-c2ccc([N+](=O)[O-])c(NCc3ccccc3)c2)c1)N1CCCCC1` [TRV 1111, (3′-(benzyl amino)-4′-nitrobiphenyl-3-yl)(piperidin-1-yl)methanone] registered a concentration for half-maximal inhibition (IC50) in data set [1] of 0.33 ± 0.44 µM. The “Stability in mouse liver microsomes (% test compound remaining after 60 min)” value in data set [2] is recorded as <1.0%.

Regarding `CC(O)c1cccc(-c2ccc(C#N)c(N3CCCC3)c2)c1` (stereo not shown) [TRV 1248], in data set [1], the IC50 was ~50 µM. The compound also showed an inhibition at 50 µM in data set [1] (50 μM compound) of 47.9%.

For the compound `O=[N+]([O-])c1ccc(-c2cccc(C(O)C(F)(F)F)c2)cc1N1CCCC1` (stereo not shown) [TRV 1155, 2,2,2-trifluoro-1-(4′-nitro-3′-(pyrrolidin-1-yl)-[1,1′-biphenyl]-3-yl)ethanol], in data set [1], half-maximal inhibition (IC50) was put at 6.65 ± 1.97 µM.

In the case of `CCCN(CCC)C(=O)c1cccc(-c2ccc([N+](=O)[O-])c(NCc3ccccc3)c2)c1` [TRV 1130, 3′-(benzylamino)-4′-nitro-N,N-dipropylbiphenyl-3-carboxamide], the IC50 in data set [1] was > 50 µM.

For `O=C(c1ccccc1)N1CCN(c2ccc(-n3cnnn3)c(N3CCCC3)c2)CC1` [TRV 1164, phenyl(4-(3-(pyrrolidin-1-yl)-4-(1H-tetrazol-1-yl)phenyl)piperazin-1-yl)methanone], the IC50 in data set [1] is > 50 µM.

Take `O=C(c1ccccc1)N1CCN(c2cc(N3CCCC3)cc(C(F)(F)F)c2)CC1` [TRV 1163, phenyl(4-(3-(pyrrolidin-1-yl)-5-(trifluoromethyl)phenyl)piperazin-1-yl)methanone]: in data set [1], the half-maximal inhibitory concentration (IC50) was > 50 µM.

For `CC(C)Nc1ccc(N2CCN(C(=O)c3ccccc3)CC2)cc1N1CCCC1` [TRV 1157, (4-(4-(isopropyl amino)-3-(pyrrolidin-1-yl)phenyl)piperazin-1-yl)(phenyl)methanone], the IC50 in data set [1] is > 50 µM.

Consider `O=C(c1ccccc1)N1CCN(c2ccc(S(=O)(=O)C(F)(F)F)c(NCc3ccccc3)c2)CC1` [TRV 1186, (4-(3-(benzylamino)-4-((trifluoromethyl)sulfonyl)phenyl)piperazin-1-yl)(phenyl)methanone], for which, in data set [1], the IC50 was > 50 µM.

On to `O=C(c1ccccc1)N1CCN(c2cc(F)c(F)c(N3CCCC3)c2)CC1` [TRV 1156, (4-(3,4-difluoro-5-(pyrrolidin-1-yl)phenyl)piperazin-1-yl)(phenyl)methanone], for which the IC50 in data set [1] is > 50 µM.

On to `O=C(O)c1cccc(-c2ccc(Cl)c(Nc3ccccc3)c2)c1` [TRV 1097, 4′-chloro-3′-(phenylamino)-[1,1′-biphenyl]-3-carboxylic acid], for which the IC50 in data set [1] is > 50 µM.

Take `O=[N+]([O-])c1ccc(-c2cccc(C(O)(O)C(F)(F)F)c2)cc1NCc1ccccc1` [TRV 1153, 1-(3′-(benzylamino)-4′-nitro-[1,1′-biphenyl]-3-yl)-2,2,2-trifluoroethane-1,1-diol]: the IC50 in data set [1] was 7.08 ± 0.19 µM.

As to `O=C(c1ccccc1)N1CCN(c2ccc([N+](=O)[O-])c(N3CCOCC3)c2)CC1` [TRV 1138, (4-(3-morpholino-4-nitrophenyl)piperazin-1-yl)(phenyl)methanone], the half-maximal inhibitory concentration (IC50) in data set [1] is > 10 µM.

Consider `O=C(c1cccc(-c2ccc([N+](=O)[O-])c(NCc3ccccc3)c2)c1)N1CCOCC1` [TRV 1113, (3′-(benzyl amino)-4′-nitrobiphenyl-3-yl)(morpholino)methanone], for which the IC50 in data set [1] is > 50 µM.

Consider `N#Cc1cccc(-c2ccc([N+](=O)[O-])c(NCc3ccccc3)c2)c1` [TRV 1136, 3′-(benzylamino)-4′-nitrobiphenyl-3-carbonitrile], for which the IC50 in data set [1] was > 50 µM.

In the case of `CCNC(=O)c1cccc(-c2ccc([N+](=O)[O-])c(NCc3ccccc3)c2)c1` [TRV 1116, 3′-(benzylamino)-N-ethyl-4′-nitrobiphenyl-3-carboxamide], the IC50 in data set [1] is > 50 µM.

With `O=C(c1ccccc1)N1CCN(c2ccc(F)c(N3CCCC3)c2)CC1` [TRV 1162, (4-(4-fluoro-3-(pyrrolidin-1-yl)phenyl)piperazin-1-yl)(phenyl)methanone], the IC50 in data set [1] is > 50 µM.

With `CC(C)Nc1cc(N2CCN(C(=O)c3ccccc3)CC2)ccc1C(F)(F)F` [TRV 1166, (4-(3-(isopropylamino)-4-(trifluoromethyl)phenyl)piperazin-1-yl)(phenyl)methanone], the IC50 in data set [1] is > 50 µM.

Values taken from patent publication US20140187556A1, “ANTI-AMYLOID COMPOUNDS AND METHODS” (Treventis Corporation, priority 2011, published 2014).
